Assay results: the supplement of paper PMC10307832

Columns and labels:
Experiment in all cases: relative viability (nuclei count vs DMSO), 5 days (fraction); higher = more cells survive
AT9283 + Palbociclib = compound: O=C(Nc1c[nH]nc1-c1nc2ccc(CN3CCOCC3)cc2[nH]1)NC1CC1 [AT9283] + CC(=O)c1c(C)c2cnc(Nc3ccc(N4CCNCC4)cn3)nc2n(C2CCCC2)c1=O [Palbociclib] (partner 0.5 µM)
Outline: (§1)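 Relative viability divides the nuclei count in treated wells by that in vehicle wells. Lung cancer cell lines were seeded in 1536-well plates, dosed by pin tool the next day, and fixed and stained after 5 days in one step with final 0.05% Triton X-100, 1% formaldehyde and 1 ug/ml Hoechst. Dosing was a single drug or a fixed anchor-drug dose plus five library-drug doses (not always all listed) in √10 steps, and values are medians of duplicate plates imaged at 4×.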

AT9283 + Dasatinib = compound: O=C(Nc1c[nH]nc1-c1nc2ccc(CN3CCOCC3)cc2[nH]1)NC1CC1 [AT9283] + Cc1nc(Nc2ncc(C(=O)Nc3c(C)cccc3Cl)s2)cc(N2CCN(CCO)CC2)n1 [Dasatinib] (partner 0.075 µM)
Outline: as §1

Erlotinib + Lapatinib = compound: C#Cc1cccc(Nc2ncnc3cc(OCCOC)c(OCCOC)cc23)c1 [Erlotinib] + CS(=O)(=O)CCNCc1ccc(-c2ccc3ncnc(Nc4ccc(OCc5cccc(F)c5)c(Cl)c4)c3c2)o1 [Lapatinib] (partner 2 µM)
Outline: as §1

AT9283 + Trametinib = compound: O=C(Nc1c[nH]nc1-c1nc2ccc(CN3CCOCC3)cc2[nH]1)NC1CC1 [AT9283] + CC(=O)Nc1cccc(-n2c(=O)n(C3CC3)c(=O)c3c(Nc4ccc(I)cc4F)n(C)c(=O)c(C)c32)c1 [Trametinib] (partner 0.02 µM)
Outline: as §1

Erlotinib + Trametinib = compound: C#Cc1cccc(Nc2ncnc3cc(OCCOC)c(OCCOC)cc23)c1 [Erlotinib] + CC(=O)Nc1cccc(-n2c(=O)n(C3CC3)c(=O)c3c(Nc4ccc(I)cc4F)n(C)c(=O)c(C)c32)c1 [Trametinib] (partner 0.02 µM)
Outline: as §1

Cell Line | relative viability (AT9283 + Palbociclib; first compound 0.003 µM) | relative viability (AT9283 + Palbociclib; first compound 0.03 µM) | relative viability (AT9283 + Palbociclib; first compound 0.09487 µM) | relative viability (AT9283 + Palbociclib; first compound 0.3 µM) | relative viability (AT9283 + Dasatinib; first compound 0.003 µM) | relative viability (AT9283 + Dasatinib; first compound 0.03 µM) | relative viability (AT9283 + Dasatinib; first compound 0.09487 µM) | relative viability (AT9283 + Dasatinib; first compound 0.3 µM) | relative viability (Erlotinib + Lapatinib; first compound 0.02 µM) | relative viability (Erlotinib + Lapatinib; first compound 0.2 µM) | relative viability (Erlotinib + Lapatinib; first compound 0.6325 µM) | relative viability (Erlotinib + Lapatinib; first compound 2 µM) | relative viability (AT9283 + Trametinib; first compound 0.003 µM) | relative viability (AT9283 + Trametinib; first compound 0.03 µM) | relative viability (AT9283 + Trametinib; first compound 0.09487 µM) | relative viability (AT9283 + Trametinib; first compound 0.3 µM) | relative viability (Erlotinib + Trametinib; first compound 0.02 µM) | relative viability (Erlotinib + Trametinib; first compound 0.2 µM) | relative viability (Erlotinib + Trametinib; first compound 0.6325 µM) | relative viability (Erlotinib + Trametinib; first compound 2 µM)
NCI-H2009 | 0.235 | 0.174 | 0.0777 | 0.032 | 0.308 | 0.212 | 0.124 | 0.099 | 0.971 | 1.03 | 1.07 | 0.889 | 0.346 | 0.267 | 0.17 | 0.0856 | 0.385 | 0.306 | 0.301 | 0.239
COR-L 105 | 0.392 | 0.327 | 0.328 | 0.286 | 0.327 | 0.181 | 0.197 | 0.185 | 0.368 | 0.322 | 0.335 | 0.36 | 0.399 | 0.395 | 0.328 | 0.297 | 0.455 | 0.336 | 0.415 | 0.362
NCI-H1975 | 0.526 | 0.676 | 0.531 | 0.324 | 0.401 | 0.461 | 0.389 | 0.237 |  | 0.885 | 0.908 |  | 0.323 | 0.777 | 0.337 | 0.234 | 0.368 | 0.32 | 0.404 | 0.348
NCI-H1734 | 0.336 | 0.281 | 0.227 | 0.233 | 0.332 | 0.301 | 0.187 | 0.158 | 1.15 | 1.02 | 1.3 | 1 | 0.7 | 0.406 | 0.267 | 0.271 | 0.74 | 0.718 | 0.619 | 0.634
NCI-H838 | 0.257 | 0.227 | 0.154 | 0.138 | 0.302 | 0.255 | 0.222 | 0.188 | 1.21 | 0.759 | 1.26 | 0.853 | 0.543 | 0.275 | 0.16 | 0.144 | 0.587 | 0.431 | 0.586 | 0.509
LCLC-103H | 0.362 | 0.494 | 0.423 | 0.371 | 0.433 | 0.486 | 0.428 | 0.296 |  |  |  |  | 0.661 | 0.716 | 0.441 | 0.4 | 0.727 | 0.636 | 0.661 | 0.62
NCI-H2023 | 0.417 | 0.327 | 0.258 | 0.139 | 0.526 | 0.42 | 0.182 | 0.101 | 0.737 | 0.651 | 0.965 |  | 0.572 | 0.604 | 0.227 | 0.119 | 0.558 | 0.369 | 0.418 | 0.32
A-427 | 0.523 | 0.39 | 0.299 | 0.3 | 0.698 | 0.402 | 0.124 | 0.131 | 1.04 | 1.02 | 1.12 | 0.94 | 0.706 | 0.501 | 0.334 | 0.396 | 0.885 | 0.752 | 0.882 | 0.749
